From patent publication US20010024809A1, “Compounds with an antioxidant activity, compositions useful as food integrators containing them and process for their preparation” (priority 2000, published 2001)

Test: Chemiluminescent antioxidant capacity in vitro (luminol/H2O2/p-iodophenol, peroxidase)
Type: biochemical
Details: for Time (min.) necessary for reaching 50% of the control light emission: water control; for light emission: concentration not given; for antioxidant activity in vitro compared with Trolox: same concentration, extinguishing time of the light emission
Protocol: The antioxidant capacity “in vitro” of FPA and FPB compounds, extracted from Ajuga reptans, and “in vivo” of the serum of rats treated with these substances, was evaluated by means of a chemiluminescent method and compared with that of an analogous hydrosoluble product of vitamin E.
The chemiluminescent reaction of luminol was used, which is oxidized by hydrogen peroxide (H2O2), generating unstable radicals which degenerate to their basic state emitting light. This reaction is catalyzed by peroxidase enzyme. A signal potentiator is also present in the system: p-iodophenol which increases the light emission, producing in turn radicals which degenerate emitting photons.
The presence of substances with an antioxidant activity interrupts the chain of radicalic reactions, temporarily preventing light emission. The time and extinguishing degree of the emission of photons are in relation to the antioxidant capacity and concentration of the substances being tested.
ECL reagent (luminol/H2O2/p-iodophenol) of Amersham International (Amersham, UK).
[…] (type VI-A, 1100 U/mg) of Sigma (St. Louis, Mo., U.S.A.).
Samples relating to FPA and FPB molecules extracted from Ajuga reptans, were prepared in aqueous solution at different concentrations (5.0, 2.0, 1.0 and 0.5 μM) and compared with solutions, at equal concentrations, of Trolox, an analogous hydrosoluble product of tocopherol. The serum of rats treated with raw extract of Ajuga reptans by intravenous administration at a dosage of 200 mg/kg were diluted 1:20 with water and compared with the serum of a non-treated rat.
Distilled water was used as control.
The dosage was effected in black polystyrene cylinders (Dynatech Laboratories, Chantilly, Va., U.S.A.). The chemiluminescent mixture was prepared by adding 100 μl of a dilution 1:10,000 v/v (0.11 U/ml) of a stock solution of peroxidase (1 mg/ml in a Tris-HCl 0.1 M buffer, pH 8.6) to 5 ml of ECL reagent. The various dilutions of the samples were distributed in quadruple into the cylinders (50 μl/cylinder) and 100 μl of chemiluminescent mixture were added to each. The light emission was measured immediately using a Luminograph LB980 (EG&G Berthold, Bad Wildbad, Germany) and the chemiluminescent reaction kinetics was monitored for about 60 minutes. The light emission was measured in photons/sec/pixel and the data obtained are indicated in Table 1 and the graph of FIG. 1 enclosed, compared with the control (water) and references (Trolox or serum of a non-treated rat).

Structure (SMILES) | Time (min.) necessary for reaching 50% of the control light emission (Concentration 0.5 μM) [min] | Time (min.) necessary for reaching 50% of the control light emission (Concentration 1 μM) [min] | Time (min.) necessary for reaching 50% of the control light emission (Concentration 2 μM) [min] | Time (min.) necessary for reaching 50% of the control light emission (Concentration 5 μM) [min] | light emission (Time 0 (min)) [photons/sec/pixel] | light emission (Time 2 (min)) [photons/sec/pixel] | light emission (Time 5 (min)) [photons/sec/pixel] | light emission (Time 7 (min)) [photons/sec/pixel] | light emission (Time 9 (min)) [photons/sec/pixel] | light emission (Time 11 (min)) [photons/sec/pixel] | light emission (Time 14 (min)) [photons/sec/pixel] | light emission (Time 17 (min)) [photons/sec/pixel] | light emission (Time 19 (min)) [photons/sec/pixel] | light emission (Time 21 (min)) [photons/sec/pixel] | light emission (Time 23 (min)) [photons/sec/pixel] | light emission (Time 26 (min)) [photons/sec/pixel] | light emission (Time 28 (min)) [photons/sec/pixel] | light emission (Time 30 (min)) [photons/sec/pixel] | light emission (Time 32 (min)) [photons/sec/pixel] | light emission (Time 34 (min)) [photons/sec/pixel] | further results
C[C@@H]1O[C@@H](O[C@@H]2[C@@H](O)[C@H](OCCc3ccc(O)c(O)c3)O[C@H](CO)[C@H]2OC(=O)/C=C/c2ccc(O)c(O)c2)[C@H](O[C@@H]2O[C@H](CO)[C@H](O)[C@H](O)[C@H]2O)[C@H](O)[C@H]1O [FPA, teupolioside] | 13 | 35 | >60 | >60 | 31.8 | 1.3 | 1.4 | 1 | 0.9 | 0.8 | 0.8 | 0.7 | 0.6 | 0.6 | 0.6 | 0.5 | 0.6 | 0.5 | 0.6 | 1.1 | light emission (Time 37 (min)): 0.8 photons/sec/pixel; light emission (Time 41 (min)): 0.7 photons/sec/pixel; light emission (Time 44 (min)): 0.9 photons/sec/pixel; light emission (Time 46 (min)): 0.8 photons/sec/pixel; light emission (Time 49 (min)): 0.8 photons/sec/pixel; light emission (Time 51 (min)): 0.8 photons/sec/pixel; light emission (Time 53 (min)): 0.8 photons/sec/pixel; light emission (Time 56 (min)): 1.1 photons/sec/pixel; light emission (Time 58 (min)): 0.8 photons/sec/pixel; light emission (Time 61 (min)): 1.1 photons/sec/pixel; activity relative to that of Trolox (dosage of 1 μM): ~12 times; antioxidant activity of FPA compared with FPB (in vitro): slightly higher activity with respect to the FPB compound; antioxidant activity in vitro compared with Trolox: extremely high antioxidant activity in vitro, significantly higher than that of Trolox
COc1cc(C=CC(=O)OC2C(CO)OC(OCCc3ccc(O)c(O)c3)C(O)C2OC2OC(C)C(O)C(O)C2OC2OC(CO)C(O)C(O)C2O)ccc1O (stereo not shown) [FPB] | 6 | 29 | >60 | >60 | 31.8 | 0.3 | 0.2 | 0 | 0 | 0 | 0 | 0 | 0.1 | 0.4 | 1.1 | 1.8 | 2.6 | 3.5 | 5.1 | 7 | light emission (Time 37 (min)): 6.6 photons/sec/pixel; light emission (Time 41 (min)): 7.6 photons/sec/pixel; light emission (Time 44 (min)): 8.6 photons/sec/pixel; light emission (Time 46 (min)): 8.9 photons/sec/pixel; light emission (Time 49 (min)): 9.6 photons/sec/pixel; light emission (Time 51 (min)): 10.3 photons/sec/pixel; light emission (Time 53 (min)): 10.9 photons/sec/pixel; light emission (Time 56 (min)): 11.4 photons/sec/pixel; light emission (Time 58 (min)): 12.1 photons/sec/pixel; light emission (Time 61 (min)): 12.7 photons/sec/pixel; antioxidant activity in vitro compared with Trolox: extremely high antioxidant activity in vitro, significantly higher than that of Trolox
Cc1c(C)c2c(c(C)c1O)CCC(C)(C(=O)O)O2 (racemic) [Trolox, (+/−)-6-hydroxy-2,5,7,8-tetramethylchroman-2-carbonsaeure, reference compound] | 1 | 3 | 6 | 15 | 31.8 | 2.9 | 7.8 | 35.5 | 46.9 | 49.3 | 50.4 | 49.7 | 49.2 | 48.3 | 47.3 | 46.2 | 45.1 | 43.7 | 42.1 | 40.8 | light emission (Time 37 (min)): 39.3 photons/sec/pixel; light emission (Time 41 (min)): 35.3 photons/sec/pixel; light emission (Time 44 (min)): 35 photons/sec/pixel; light emission (Time 46 (min)): 32.8 photons/sec/pixel; light emission (Time 49 (min)): 31.1 photons/sec/pixel; light emission (Time 51 (min)): 29.6 photons/sec/pixel; light emission (Time 53 (min)): 28.6 photons/sec/pixel; light emission (Time 56 (min)): 26.2 photons/sec/pixel; light emission (Time 58 (min)): 26.8 photons/sec/pixel; light emission (Time 61 (min)): 23.9 photons/sec/pixel
